Data published in patent US8367873B2, “Phenyl-substituted bicyclooctane-1,3-dione derivatives” (Bayer Cropscience AG, priority 2008, dated 2013).

What was measured:
Type in all cases: in vivo
Alopecurus myosuroides [1] = experiment: Herbicidal pre-emergence action; details: pre-emergence method, 80 g/ha, greenhouse, visual assessment vs untreated controls
Outline: (§1)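 Visual percent effect relative to untreated controls (0% = like control, 100% = dead) assessed three weeks after treatment in the greenhouse. Compounds, as wettable powders in water (600 l/ha, 0.2% wetting agent), were sprayed at different amounts onto covering soil over seeds sown in sandy loam.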

Setaria viridis [2] = experiment: Herbicidal pre-emergence action; details: pre-emergence method, 80 g/ha, greenhouse, visual assessment vs untreated controls
Outline: as §1

Echinocloa crus-galli [3] = experiment: Herbicidal pre-emergence action; details: pre-emergence method, 80 g/ha, greenhouse, visual assessment vs untreated controls
Outline: as §1

Lolium multiflorum [4] = experiment: Herbicidal pre-emergence action; details: pre-emergence method, 80 g/ha, greenhouse, visual assessment vs untreated controls
Outline: as §1

[5] = test system: monocotylidonous and dicotylidonous weed and crop plants; experiment: Herbicidal pre-emergence action (other test plants); details: pre-emergence method, 80 g/ha, greenhouse, visual assessment vs untreated controls
Outline: as §1

Alopecurus myosuroides [6] = experiment: Herbicidal post-emergence action; details: post-emergence method; for herbicidal effect against ALOMY (Alopecurus myosuroides): 80 g/ha
Outline: (§2)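 Post-emergence spray test: wettable-powder formulations are applied at different amounts to one-leaf-stage plants in 600 l/ha water containing 0.2% wetting agent. After roughly three weeks in the greenhouse, percent effect is rated visually relative to untreated controls.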

Setaria viridis [7] = experiment: Herbicidal post-emergence action; details: post-emergence method; for herbicidal effect against SETVI (Setaria viridis): 80 g/ha
Outline: as §2

Echinocloa crus-galli [8] = experiment: Herbicidal post-emergence action; details: post-emergence method; for herbicidal effect against ECHCG (Echinochloa crus-galli): 80 g/ha
Outline: as §2

Lolium multiflorum [9] = experiment: Herbicidal post-emergence action; details: post-emergence method; for herbicidal effect against LOLMU (Lolium multiflorum): 80 g/ha
Outline: as §2

[10] = test system: monocotylidonous and dicotylidonous weed and crop plants; experiment: Herbicidal post-emergence action (other test plants); details: post-emergence method; for herbicidal effect against AVEFA (Avena fatua): 80 g/ha
Outline: as §2

CCc1cc(C)cc(CC)c1C1=C(O)C2CC(=NOCC(C)C)CC2C1=O (centres unmarked) [I-a-69]
herbicidal effect ALOMY (Alopecurus myosuroides [1]): 50% | herbicidal effect SETVI (Setaria viridis [2]): 80% | herbicidal effect ECHCG (Echinocloa crus-galli [3]): 20% | herbicidal effect LOLMU (Lolium multiflorum [4]): 70% | herbicidal effect AVEFA [5]: 70% | herbicidal effect against ALOMY (Alopecurus myosuroides) (Alopecurus myosuroides [6]): 90% | herbicidal effect against SETVI (Setaria viridis) (Setaria viridis [7]): 80% | herbicidal effect against ECHCG (Echinochloa crus-galli) (Echinocloa crus-galli [8]): 100% | herbicidal effect against LOLMU (Lolium multiflorum) (Lolium multiflorum [9]): 100% | herbicidal effect against AVEFA (Avena fatua) [10]: 30%

CCc1cc(C)cc(CC)c1C1=C(O)C2CC(=NOCC(F)(F)F)CC2C1=O (centres unmarked) [I-a-70]
herbicidal effect ALOMY (Alopecurus myosuroides [1]): 80% | herbicidal effect SETVI (Setaria viridis [2]): 60% | herbicidal effect ECHCG (Echinocloa crus-galli [3]): 80% | herbicidal effect LOLMU (Lolium multiflorum [4]): 80% | herbicidal effect AVEFA [5]: 60% | herbicidal effect against ALOMY (Alopecurus myosuroides) (Alopecurus myosuroides [6]): 90% | herbicidal effect against SETVI (Setaria viridis) (Setaria viridis [7]): 60% | herbicidal effect against ECHCG (Echinochloa crus-galli) (Echinocloa crus-galli [8]): 100% | herbicidal effect against LOLMU (Lolium multiflorum) (Lolium multiflorum [9]): 100% | herbicidal effect against AVEFA (Avena fatua) [10]: 0%

CCc1cc(C)cc(CC)c1C1=C(OC(C)=O)[C@H]2C[C@@]3(COC(C)(C)O3)C[C@H]2C1=O [I-b-1]
herbicidal effect ALOMY (Alopecurus myosuroides [1]): 90% | herbicidal effect SETVI (Setaria viridis [2]): 70% | herbicidal effect ECHCG (Echinocloa crus-galli [3]): 40% | herbicidal effect LOLMU (Lolium multiflorum [4]): 100% | herbicidal effect AVEFA [5]: 40% | pest or weed control at 80 g/ha (Alopecurus myosuroides [6]; Alopecurus myosuroides, 504 h, read-out: herbicidal effect against ALOMY (Alopecurus myosuroides)): 100% | pest or weed control at 80 g/ha (Setaria viridis [7]; Setaria viridis, 504 h, read-out: herbicidal effect against SETVI (Setaria viridis)): 40% | pest or weed control at 80 g/ha (Echinocloa crus-galli [8]; Echinochloa crus-galli, 504 h, read-out: herbicidal effect against ECHCG (Echinochloa crus-galli)): 100% | pest or weed control at 80 g/ha (Lolium multiflorum [9]; Lolium multiflorum, 504 h, read-out: herbicidal effect against LOLMU (Lolium multiflorum)): 100% | pest or weed control at 80 g/ha ([10]; 504 h, Avena fatua, read-out: herbicidal effect against AVEFA (Avena fatua)): 60%

CCC(=O)OC1=C(c2c(CC)cc(C)cc2CC)C(=O)C2CC3(COC(C)(C)O3)CC12 (centres unmarked) [I-b-2]
herbicidal effect ALOMY (Alopecurus myosuroides [1]): 90% | herbicidal effect SETVI (Setaria viridis [2]): 40% | herbicidal effect ECHCG (Echinocloa crus-galli [3]): 30% | herbicidal effect LOLMU (Lolium multiflorum [4]): 100% | herbicidal effect AVEFA [5]: 50% | herbicidal effect against ALOMY (Alopecurus myosuroides) (Alopecurus myosuroides [6]): 100% | herbicidal effect against SETVI (Setaria viridis) (Setaria viridis [7]): 80% | herbicidal effect against ECHCG (Echinochloa crus-galli) (Echinocloa crus-galli [8]): 90% | herbicidal effect against LOLMU (Lolium multiflorum) (Lolium multiflorum [9]): 100% | herbicidal effect against AVEFA (Avena fatua) [10]: 60%

CCc1cc(C)cc(CC)c1C1=C(OC(=O)C(C)C)C2CC3(COC(C)(C)O3)CC2C1=O (centres unmarked) [I-b-3]
herbicidal effect ALOMY (Alopecurus myosuroides [1]): 90% | herbicidal effect SETVI (Setaria viridis [2]): 50% | herbicidal effect ECHCG (Echinocloa crus-galli [3]): 0% | herbicidal effect LOLMU (Lolium multiflorum [4]): 100% | herbicidal effect AVEFA [5]: 60% | herbicidal effect against ALOMY (Alopecurus myosuroides) (Alopecurus myosuroides [6]): 100% | herbicidal effect against SETVI (Setaria viridis) (Setaria viridis [7]): 20% | herbicidal effect against ECHCG (Echinochloa crus-galli) (Echinocloa crus-galli [8]): 100% | herbicidal effect against LOLMU (Lolium multiflorum) (Lolium multiflorum [9]): 100% | herbicidal effect against AVEFA (Avena fatua) [10]: 40%

CCc1cc(C)cc(CC)c1C1=C(OC(=O)COC)C2CC3(COC(C)(C)O3)CC2C1=O (centres unmarked) [I-b-4]
herbicidal effect ALOMY (Alopecurus myosuroides [1]): 90% | herbicidal effect SETVI (Setaria viridis [2]): 60% | herbicidal effect ECHCG (Echinocloa crus-galli [3]): 70% | herbicidal effect LOLMU (Lolium multiflorum [4]): 100% | herbicidal effect AVEFA [5]: 50% | herbicidal effect against ALOMY (Alopecurus myosuroides) (Alopecurus myosuroides [6]): 100% | herbicidal effect against SETVI (Setaria viridis) (Setaria viridis [7]): 60% | herbicidal effect against ECHCG (Echinochloa crus-galli) (Echinocloa crus-galli [8]): 100% | herbicidal effect against LOLMU (Lolium multiflorum) (Lolium multiflorum [9]): 100% | herbicidal effect against AVEFA (Avena fatua) [10]: 90%

CCC(=O)OC1=C(c2c(CC)cc(C)cc2CC)C(=O)C2CC3(COC(C)(C)O3)CC12 (centres unmarked) [I-b-6]
herbicidal effect ALOMY (Alopecurus myosuroides [1]): 100% | herbicidal effect SETVI (Setaria viridis [2]): 60% | herbicidal effect ECHCG (Echinocloa crus-galli [3]): 30% | herbicidal effect LOLMU (Lolium multiflorum [4]): 100% | herbicidal effect AVEFA [5]: 80% | herbicidal effect against ALOMY (Alopecurus myosuroides) (Alopecurus myosuroides [6]): 90% | herbicidal effect against SETVI (Setaria viridis) (Setaria viridis [7]): 90% | herbicidal effect against ECHCG (Echinochloa crus-galli) (Echinocloa crus-galli [8]): 100% | herbicidal effect against LOLMU (Lolium multiflorum) (Lolium multiflorum [9]): 100% | herbicidal effect against AVEFA (Avena fatua) [10]: 100%

CCc1cc(C)cc(CC)c1C1=C(OC(=O)C(C)C)C2CC3(COC(C)(C)O3)CC2C1=O (centres unmarked) [I-b-7]
herbicidal effect ALOMY (Alopecurus myosuroides [1]): 100% | herbicidal effect SETVI (Setaria viridis [2]): 70% | herbicidal effect ECHCG (Echinocloa crus-galli [3]): 60% | herbicidal effect LOLMU (Lolium multiflorum [4]): 100% | herbicidal effect AVEFA [5]: 80% | herbicidal effect against ALOMY (Alopecurus myosuroides) (Alopecurus myosuroides [6]): 90% | herbicidal effect against SETVI (Setaria viridis) (Setaria viridis [7]): 90% | herbicidal effect against ECHCG (Echinochloa crus-galli) (Echinocloa crus-galli [8]): 100% | herbicidal effect against LOLMU (Lolium multiflorum) (Lolium multiflorum [9]): 100% | herbicidal effect against AVEFA (Avena fatua) [10]: 100%

CCc1cc(C)cc(CC)c1C1=C(OC(=O)C(C)(C)C)C2CC3(COC(C)(C)O3)CC2C1=O (centres unmarked) [I-b-8]
herbicidal effect ALOMY (Alopecurus myosuroides [1]): 100% | herbicidal effect SETVI (Setaria viridis [2]): 90% | herbicidal effect ECHCG (Echinocloa crus-galli [3]): 90% | herbicidal effect LOLMU (Lolium multiflorum [4]): 100% | herbicidal effect AVEFA [5]: 80% | herbicidal effect against ALOMY (Alopecurus myosuroides) (Alopecurus myosuroides [6]): 90% | herbicidal effect against SETVI (Setaria viridis) (Setaria viridis [7]): 60% | herbicidal effect against ECHCG (Echinochloa crus-galli) (Echinocloa crus-galli [8]): 80% | herbicidal effect against LOLMU (Lolium multiflorum) (Lolium multiflorum [9]): 100% | herbicidal effect against AVEFA (Avena fatua) [10]: 70%

CCc1cc(C)cc(CC)c1C1=C(OC(=O)C(C)C)C2CC3(CC2C1=O)OCC=CCO3 (centres unmarked) [I-b-12]
herbicidal effect ALOMY (Alopecurus myosuroides [1]): 100% | herbicidal effect SETVI (Setaria viridis [2]): 90% | herbicidal effect ECHCG (Echinocloa crus-galli [3]): 100% | herbicidal effect LOLMU (Lolium multiflorum [4]): 100% | herbicidal effect AVEFA [5]: 70% | herbicidal effect against ALOMY (Alopecurus myosuroides) (Alopecurus myosuroides [6]): 90% | herbicidal effect against SETVI (Setaria viridis) (Setaria viridis [7]): 100% | herbicidal effect against ECHCG (Echinochloa crus-galli) (Echinocloa crus-galli [8]): 100% | herbicidal effect against LOLMU (Lolium multiflorum) (Lolium multiflorum [9]): 100% | herbicidal effect against AVEFA (Avena fatua) [10]: 100%

CCc1cc(C)cc(CC)c1C1=C(OC(=O)C(C)C)C2CC3(CC2C1=O)OCC(C)CO3 (centres unmarked) [I-b-14]
herbicidal effect ALOMY (Alopecurus myosuroides [1]): 100% | herbicidal effect SETVI (Setaria viridis [2]): 100% | herbicidal effect ECHCG (Echinocloa crus-galli [3]): 100% | herbicidal effect LOLMU (Lolium multiflorum [4]): 100% | herbicidal effect AVEFA [5]: 70% | herbicidal effect against ALOMY (Alopecurus myosuroides) (Alopecurus myosuroides [6]): 100% | herbicidal effect against SETVI (Setaria viridis) (Setaria viridis [7]): 100% | herbicidal effect against ECHCG (Echinochloa crus-galli) (Echinocloa crus-galli [8]): 100% | herbicidal effect against LOLMU (Lolium multiflorum) (Lolium multiflorum [9]): 100% | herbicidal effect against AVEFA (Avena fatua) [10]: 100%

CCOC1COC2(CC3C(=O)C(c4c(CC)cc(C)cc4CC)=C(OC(=O)C(C)C)C3C2)OC1 (centres unmarked) [I-b-16]
herbicidal effect ALOMY (Alopecurus myosuroides [1]): 100% | herbicidal effect SETVI (Setaria viridis [2]): 100% | herbicidal effect ECHCG (Echinocloa crus-galli [3]): 100% | herbicidal effect LOLMU (Lolium multiflorum [4]): 100% | herbicidal effect AVEFA [5]: 80% | herbicidal effect against ALOMY (Alopecurus myosuroides) (Alopecurus myosuroides [6]): 100% | herbicidal effect against SETVI (Setaria viridis) (Setaria viridis [7]): 100% | herbicidal effect against ECHCG (Echinochloa crus-galli) (Echinocloa crus-galli [8]): 100% | herbicidal effect against LOLMU (Lolium multiflorum) (Lolium multiflorum [9]): 100% | herbicidal effect against AVEFA (Avena fatua) [10]: 90%

CCc1cc(C)cc(CC)c1C1=C(OC(=O)C(C)C)C2CC3(CC2C1=O)OCC(OCc1ccccc1)CO3 (centres unmarked) [I-b-17]
herbicidal effect ALOMY (Alopecurus myosuroides [1]): 90% | herbicidal effect SETVI (Setaria viridis [2]): 90% | herbicidal effect ECHCG (Echinocloa crus-galli [3]): 100% | herbicidal effect LOLMU (Lolium multiflorum [4]): 100% | herbicidal effect AVEFA [5]: 80% | herbicidal effect against ALOMY (Alopecurus myosuroides) (Alopecurus myosuroides [6]): 90% | herbicidal effect against SETVI (Setaria viridis) (Setaria viridis [7]): 90% | herbicidal effect against ECHCG (Echinochloa crus-galli) (Echinocloa crus-galli [8]): 100% | herbicidal effect against LOLMU (Lolium multiflorum) (Lolium multiflorum [9]): 100% | herbicidal effect against AVEFA (Avena fatua) [10]: 90%

CCc1cc(C)cc(CC)c1C1=C(OC(C)=O)C2CC3(CC2C1=O)OCCO3 (centres unmarked) [I-b-18]
herbicidal effect ALOMY (Alopecurus myosuroides [1]): 100% | herbicidal effect SETVI (Setaria viridis [2]): 70% | herbicidal effect ECHCG (Echinocloa crus-galli [3]): 80% | herbicidal effect LOLMU (Lolium multiflorum [4]): 100% | herbicidal effect AVEFA [5]: 70% | herbicidal effect against ALOMY (Alopecurus myosuroides) (Alopecurus myosuroides [6]): 100% | herbicidal effect against SETVI (Setaria viridis) (Setaria viridis [7]): 100% | herbicidal effect against ECHCG (Echinochloa crus-galli) (Echinocloa crus-galli [8]): 100% | herbicidal effect against LOLMU (Lolium multiflorum) (Lolium multiflorum [9]): 100% | herbicidal effect against AVEFA (Avena fatua) [10]: 100%
